{"source": "EPA's ToxRefDB 2", "key": {"[1]": {"test_system": "rat", "conditions": "Prenatal developmental toxicity study, sprague dawley, Oral, Gavage/Intubation, dose end: 15 GD"}, "[2]": {"test_system": "dog", "conditions": "Subchronic oral toxicity in nonrodent, beagle, Feed, dose end: 13 week, group: systemic"}, "[3]": {"test_system": "rat", "conditions": "Prenatal developmental toxicity study, sprague dawley, Oral, Gavage/Intubation, dose end: 15 GD", "remark": "listed apart in the source"}, "[4]": {"test_system": "mouse", "conditions": "Subchronic oral toxicity in rodents, b6c3f1, Feed, dose end: 90 day, group: systemic"}, "[5]": {"test_system": "rat", "conditions": "Developmental neurotoxicity study; wistar; Oral; Gavage/Intubation; dose end: 90 PND; group: cannot be grouped; systemic / in life observation / clinical signs / poor maternal care + systemic / in life observation / clinical signs / grip strength + …"}, "[6]": {"test_system": "rabbit", "conditions": "Prenatal developmental toxicity study, new zealand white, Oral, Gavage/Intubation, dose end: 19 GD"}, "[7]": {"test_system": "dog", "conditions": "Chronic toxicity, beagle, Oral, Feed, dose end: 52 week, group: systemic"}, "[8]": {"test_system": "rat", "conditions": "Subchronic oral toxicity in rodents, fischer, Feed, dose end: 90 day, group: systemic, systemic / hematology / hematocrit (hct) / hematocrit (hct) + systemic / hematology / hemoglobin (hgb) / hemoglobin (hgb) + systemic / …"}, "[9]": {"test_system": "rat", "conditions": "Prenatal developmental toxicity study, sprague dawley, Oral, Gavage/Intubation, dose end: 15 GD", "remark": "listed apart in the source"}, "[10]": {"test_system": "mouse", "conditions": "Carcinogenicity, cd1, Oral, Feed, dose end: 18 month, group: systemic"}, "[11]": {"conditions": "group: developmental, developmental / developmental malformation / bone / incomplete ossification + developmental / developmental malformation / bone / …"}, "[12]": {"conditions": "group: maternal, systemic / organ weight / spleen / relative to brain weight + systemic / pathology microscopic / spleen / hematopoietic cell proliferation"}, "[13]": {"conditions": "group: maternal, systemic / organ weight / spleen / relative to brain weight + systemic / pathology microscopic / spleen / hematopoietic cell proliferation…"}, "[14]": {"conditions": "systemic / clinical chemistry / alkaline phosphatase (alp/alk) / alkaline phosphatase (alp/alk) + systemic / hematology / hematocrit (hct…"}, "[15]": {"conditions": "group: developmental, developmental / developmental malformation / bone / ossification sites + systemic / in life observation / body weight / fetal weight"}, "[16]": {"conditions": "group: developmental, developmental / developmental malformation / bone / ossification sites + systemic / in life observation / body weight / fetal weight + …"}, "[17]": {"conditions": "systemic / hematology / erythrocyte (rbc) count differential / erythrocyte (rbc) + systemic / hematology / hematocrit (hct) / hematocrit (…"}, "[18]": {"conditions": "group: developmental, systemic / in life observation / body weight / fetal weight"}, "[19]": {"conditions": "group: developmental, systemic / in life observation / body weight / fetal weight + developmental / developmental malformation / bone / fused + developmental / …"}, "[20]": {"conditions": "group: maternal, reproductive / reproductive performance / aborted / aborted + reproductive / reproductive performance / resorptions / resorptions + systemic…"}, "[21]": {"conditions": "systemic / hematology / microcytosis / microcytosis + systemic / clinical chemistry / albumin / albumin + systemic / clinical chemistry / …"}, "[22]": {"conditions": "group: maternal, reproductive / reproductive performance / postimplantation loss / postimplantation loss + reproductive / reproductive performance / …"}, "[23]": {"conditions": "systemic / pathology microscopic / adrenal gland / amyloid deposition + systemic / pathology microscopic / kidney / amyloid deposition + …"}}, "data": [{"compound": "Cc1nn(-c2cc(NS(C)(=O)=O)c(Cl)cc2Cl)c(=O)n1C(F)F", "note": "[Sulfentrazone]", "values": [{"measurement": "LEL", "setting": "[1]; [11]", "value": 25, "unit": "mg/kg/day"}, {"measurement": "LOAEL", "setting": "[1]; [11]", "value": 25, "unit": "mg/kg/day"}, {"measurement": "NEL", "setting": "[1]; [11]", "value": 10, "unit": "mg/kg/day"}, {"measurement": "NOAEL", "setting": "[1]; [11]", "value": 10, "unit": "mg/kg/day"}, {"measurement": "LOAEL", "setting": "[1]; [12]", "value": 50, "unit": "mg/kg/day"}, {"measurement": "LEL", "setting": "[1]; [13]", "value": 50, "unit": "mg/kg/day"}, {"measurement": "NEL", "setting": "[1]; [13]", "value": 25, "unit": "mg/kg/day"}, {"measurement": "NOAEL", "setting": "[1]; [13]", "value": 25, "unit": "mg/kg/day"}, {"measurement": "LOAEL", "setting": "[2]; [14]", "value": 57, "unit": "mg/kg/day"}, {"measurement": "NEL", "setting": "[2]; [14]", "value": 10, "unit": "mg/kg/day"}, {"measurement": "NOAEL", "setting": "[2]; [14]", "value": 28, "unit": "mg/kg/day"}, {"measurement": "LEL", "setting": "[2]; systemic / organ weight / liver / absolute", "value": 28, "unit": "mg/kg/day"}, {"measurement": "LEL", "setting": "[3]; [15]", "value": 25, "unit": "mg/kg/day"}, {"measurement": "LOAEL", "setting": "[3]; [15]", "value": 25, "unit": "mg/kg/day"}, {"measurement": "NEL", "setting": "[3]; [16]", "value": 10, "unit": "mg/kg/day"}, {"measurement": "NOAEL", "setting": "[3]; [16]", "value": 10, "unit": "mg/kg/day"}, {"measurement": "LOAEL", "setting": "[3]; [12]", "value": 50, "unit": "mg/kg/day"}, {"measurement": "LEL", "setting": "[3]; [13]", "value": 50, "unit": "mg/kg/day"}, {"measurement": "NEL", "setting": "[3]; [13]", "value": 25, "unit": "mg/kg/day"}, {"measurement": "NOAEL", "setting": "[3]; [13]", "value": 25, "unit": "mg/kg/day"}, {"measurement": "LOAEL", "setting": "[4]; [17]", "value": 108, "unit": "mg/kg/day"}, {"measurement": "NEL", "setting": "[4]; [17]", "value": 17.8, "unit": "mg/kg/day"}, {"measurement": "NOAEL", "setting": "[4]; [17]", "value": 60, "unit": "mg/kg/day"}, {"measurement": "LEL", "setting": "[4]; systemic / hematology / hematocrit (hct) / hematocrit (hct)", "value": 60, "unit": "mg/kg/day"}, {"measurement": "LEL", "setting": "[5]", "value": 25, "unit": "mg/kg/day"}, {"measurement": "LOAEL", "setting": "[5]", "value": "> 50", "unit": "mg/kg/day"}, {"measurement": "NEL", "setting": "[5]", "value": "< 25", "unit": "mg/kg/day"}, {"measurement": "NOAEL", "setting": "[5]", "value": "≥ 50", "unit": "mg/kg/day"}, {"measurement": "LOAEL", "setting": "[6]; [18]", "value": 375, "unit": "mg/kg/day"}, {"measurement": "LEL", "setting": "[6]; group: developmental, systemic / in life observation / body weight / fetal weight + developmental / developmental malformation / bone / fused", "value": 250, "unit": "mg/kg/day"}, {"measurement": "NEL", "setting": "[6]; [19]", "value": 100, "unit": "mg/kg/day"}, {"measurement": "NOAEL", "setting": "[6]; [19]", "value": 250, "unit": "mg/kg/day"}, {"measurement": "LOAEL", "setting": "[6]; [20]", "value": 375, "unit": "mg/kg/day"}, {"measurement": "NEL", "setting": "[6]; [20]", "value": 100, "unit": "mg/kg/day"}, {"measurement": "NOAEL", "setting": "[6]; [20]", "value": 250, "unit": "mg/kg/day"}, {"measurement": "LEL", "setting": "[6]; group: maternal, reproductive / reproductive performance / resorptions / resorptions + systemic / in life observation / body weight / body weight gain + …", "value": 250, "unit": "mg/kg/day"}, {"measurement": "LOAEL", "setting": "[7]; systemic / hematology / microcytosis / microcytosis", "value": 61.2, "unit": "mg/kg/day"}, {"measurement": "NEL", "setting": "[7]; [21]", "value": 9.9, "unit": "mg/kg/day"}, {"measurement": "NOAEL", "setting": "[7]; [21]", "value": 24.9, "unit": "mg/kg/day"}, {"measurement": "LEL", "setting": "[7]; systemic / pathology microscopic / gallbladder / pigmentation", "value": 24.9, "unit": "mg/kg/day"}, {"measurement": "LOAEL", "setting": "[8]", "value": 65.8, "unit": "mg/kg/day"}, {"measurement": "NOAEL", "setting": "[8]", "value": 19.9, "unit": "mg/kg/day"}, {"measurement": "LEL", "setting": "[9]; [18]", "value": 50, "unit": "mg/kg/day"}, {"measurement": "LOAEL", "setting": "[9]; [18]", "value": "> 50", "unit": "mg/kg/day"}, {"measurement": "NEL", "setting": "[9]; [18]", "value": 25, "unit": "mg/kg/day"}, {"measurement": "NOAEL", "setting": "[9]; [18]", "value": "≥ 50", "unit": "mg/kg/day"}, {"measurement": "LEL", "setting": "[9]; [22]", "value": 50, "unit": "mg/kg/day"}, {"measurement": "LOAEL", "setting": "[9]; [22]", "value": "> 50", "unit": "mg/kg/day"}, {"measurement": "NEL", "setting": "[9]; [22]", "value": 25, "unit": "mg/kg/day"}, {"measurement": "NOAEL", "setting": "[9]; [22]", "value": "≥ 50", "unit": "mg/kg/day"}, {"measurement": "LOAEL", "setting": "[10]; systemic / hematology / hematocrit (hct) / hematocrit (hct) + systemic / hematology / hemoglobin (hgb) / hemoglobin (hgb)", "value": 160, "unit": "mg/kg/day"}, {"measurement": "NOAEL", "setting": "[10]; systemic / hematology / hematocrit (hct) / hematocrit (hct) + systemic / hematology / hemoglobin (hgb) / hemoglobin (hgb) + systemic / …", "value": 93.9, "unit": "mg/kg/day"}, {"measurement": "LEL", "setting": "[10]; [23]", "value": 46.6, "unit": "mg/kg/day"}, {"measurement": "NEL", "setting": "[10]; [23]", "value": "< 46.6", "unit": "mg/kg/day"}]}]}
